Experimental data reported in a compilation of properties of binary mixtures (doi:10.1016/j.molliq.2020.114495).

Assay: xn = mol fraction of the nth substance listed
Details: 100 kPa

## OCCO + O=S(=O)([N-]S(=O)(=O)C(F)(F)F)C(F)(F)F.[Li+]
303 K, x2 = 0
  viscosity: 13.53 mPa·s
318.1 K, x2 = 0
  viscosity: 9.59 mPa·s
333 K, x2 = 0
  viscosity: 7.47 mPa·s

## O=S(=O)([N-]S(=O)(=O)C(F)(F)F)C(F)(F)F.[Li+] + OCCO
303 K, x1 = 0.143
  electrical conductivity: 0.129 S/m
  viscosity: 18.14 mPa·s
303 K, x1 = 0.167
  electrical conductivity: 0.275 S/m
  viscosity: 19.25 mPa·s
303 K, x1 = 0.2
  electrical conductivity: 0.305 S/m
  viscosity: 21.4 mPa·s
303 K, x1 = 0.25
  electrical conductivity: 0.291 S/m
  viscosity: 23.79 mPa·s
303 K, x1 = 0.333
  electrical conductivity: 0.281 S/m
  viscosity: 30.24 mPa·s
303 K, x1 = 0.5
  electrical conductivity: 0.275 S/m
  viscosity: 58.8 mPa·s
318.1 K, x1 = 0.143
  electrical conductivity: 0.296 S/m
  viscosity: 12.79 mPa·s
318.1 K, x1 = 0.167
  electrical conductivity: 0.604 S/m
  viscosity: 13.57 mPa·s
318.1 K, x1 = 0.2
  electrical conductivity: 0.738 S/m
  viscosity: 14.53 mPa·s
318.1 K, x1 = 0.25
  electrical conductivity: 0.623 S/m
  viscosity: 16.35 mPa·s
318.1 K, x1 = 0.333
  electrical conductivity: 0.559 S/m
  viscosity: 18.69 mPa·s
318.1 K, x1 = 0.5
  electrical conductivity: 0.534 S/m
  viscosity: 35.26 mPa·s
333 K, x1 = 0.143
  electrical conductivity: 0.516 S/m
  viscosity: 8.55 mPa·s
333 K, x1 = 0.167
  electrical conductivity: 0.928 S/m
  viscosity: 8.71 mPa·s
333 K, x1 = 0.2
  electrical conductivity: 1.2 S/m
  viscosity: 10.21 mPa·s
333 K, x1 = 0.25
  electrical conductivity: 1.07 S/m
  viscosity: 10.61 mPa·s
333 K, x1 = 0.333
  electrical conductivity: 0.88 S/m
  viscosity: 11.02 mPa·s
